Results as given in patent US20260124309A1, “STAT6 DEGRADERS AND USES THEREOF” (Kymera Therapeutics, Inc., priority 2023, published 2026).

What was measured:
[1] = target: T1, STAT6 (Homo sapiens, UniProt P42226); assay: STAT6 MSD degradation in A549 cells; type: cell-based; conditions: 24 h
T1 construct: endogenous in cells; host or cells: A549
T1 sequence (P42226 1-847): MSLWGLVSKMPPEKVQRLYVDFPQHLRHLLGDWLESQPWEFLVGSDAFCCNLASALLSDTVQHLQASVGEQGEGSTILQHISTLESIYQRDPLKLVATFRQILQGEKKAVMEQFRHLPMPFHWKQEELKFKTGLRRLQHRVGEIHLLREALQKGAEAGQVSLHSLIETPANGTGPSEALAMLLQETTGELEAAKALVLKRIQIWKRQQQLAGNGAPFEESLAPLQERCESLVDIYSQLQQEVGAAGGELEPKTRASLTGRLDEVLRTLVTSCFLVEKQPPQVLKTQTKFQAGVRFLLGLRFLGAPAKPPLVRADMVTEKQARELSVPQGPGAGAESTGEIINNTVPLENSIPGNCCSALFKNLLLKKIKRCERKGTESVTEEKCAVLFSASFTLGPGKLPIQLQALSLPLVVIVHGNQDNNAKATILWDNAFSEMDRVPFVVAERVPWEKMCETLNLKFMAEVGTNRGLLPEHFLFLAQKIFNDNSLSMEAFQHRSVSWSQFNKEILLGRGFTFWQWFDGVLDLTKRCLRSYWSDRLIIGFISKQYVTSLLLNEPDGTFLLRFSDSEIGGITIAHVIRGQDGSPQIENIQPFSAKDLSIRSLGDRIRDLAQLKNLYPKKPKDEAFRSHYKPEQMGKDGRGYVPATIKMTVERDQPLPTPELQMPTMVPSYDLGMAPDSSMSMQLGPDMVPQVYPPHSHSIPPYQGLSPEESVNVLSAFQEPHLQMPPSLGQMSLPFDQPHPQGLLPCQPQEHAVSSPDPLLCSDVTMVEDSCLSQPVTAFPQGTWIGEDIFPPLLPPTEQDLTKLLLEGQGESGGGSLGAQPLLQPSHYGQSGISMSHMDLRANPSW
Description: Degradation of STAT6 in cells was quantitatively measured using Meso Scale Discovery (MSD) technology. A549 cells were seeded in 96-well plates with a density of 1.5×10e4 to 5×10e5 cells per well in 100 μl fresh media. Compounds were then added to the assay plates with a final top concentration of up to 10 uM in a 1:3 dilution series with total of 9 doses. The assay plates were then incubated for 4 to 24 hours at 37° C. under 5% CO2. The assay plates were then centrifuged for 5 minutes and the cell pellets were treated with 100 μl/well RIPA lysis buffer (Boston Bioproducts, BP-115D) with protease and phosphatase inhibitors (Roche, 05892791001 and 04906837001). To prepare the MSD assay plates (MSD, L15XA), the plates were coated with the capture antibody (Abnova, H00006778) in PBS, at 40 μl/well. The plates were then incubated overnight at 4° C., washed 1 time with 150 μl/well TBST buffer (Cell Signaling Technology, #9997S) and blocked with 150 μl/well blocking buffer (MSD, R93BA-4). Cell lysates were then added to MSD assay plates and the plates were incubated at room temperature for 1 hour. The plates were then washed 3 times with 150 μl/well TBST buffer and 25 μl/well primary detection antibody (Cell Signaling Technology, #5397S). The assay plates were then incubated at room temperature for 1 hour, washed 3 times with 150 μl/well TBST buffer, and 25 μl/well secondary detection antibody, SULFO-TAG anti-rabbit antibody (MSD, R32AB-1) were added. The assay plates were then incubated at room temperature for 1 hour, washed 3 times with 150 μl/well TBST buffer, and 150 μl/well MSD reading buffer (MSD, R92TC-2) were added. The plates were then analyzed by an MSD reader. The data was analyzed by GraphPad Prism and the dose dependent STAT6 degradation was fit using the four-parameter inhibitor vs. response nonlinear regression.
The letter codes for DC50 (nM) include: A (<1 nM); B (1-10 nM); C (>10-100 nM); D (>100-1000 nM); E (>1000 nM); and F (not tested). The letter codes for Dmax (oo) include: A (>90%); B (>70-90%); C (>50-70%); D ([…]); and F (not tested).

[2] = target: T2, biotinylated truncated STAT6 (123-632)-avi (Homo sapiens, UniProt P42226); assay: STAT6 HTRF binding assay; conditions: 0.15 nM biotinylated truncated STAT6 (123-632)-avi, 20 nM fluorescein-labeled probe
T2 construct: biotinylated truncated STAT6 (123-632)-avi purified from E. coli; made in house; host or cells: E. coli
T2 sequence (P42226 123-632 limits assumed): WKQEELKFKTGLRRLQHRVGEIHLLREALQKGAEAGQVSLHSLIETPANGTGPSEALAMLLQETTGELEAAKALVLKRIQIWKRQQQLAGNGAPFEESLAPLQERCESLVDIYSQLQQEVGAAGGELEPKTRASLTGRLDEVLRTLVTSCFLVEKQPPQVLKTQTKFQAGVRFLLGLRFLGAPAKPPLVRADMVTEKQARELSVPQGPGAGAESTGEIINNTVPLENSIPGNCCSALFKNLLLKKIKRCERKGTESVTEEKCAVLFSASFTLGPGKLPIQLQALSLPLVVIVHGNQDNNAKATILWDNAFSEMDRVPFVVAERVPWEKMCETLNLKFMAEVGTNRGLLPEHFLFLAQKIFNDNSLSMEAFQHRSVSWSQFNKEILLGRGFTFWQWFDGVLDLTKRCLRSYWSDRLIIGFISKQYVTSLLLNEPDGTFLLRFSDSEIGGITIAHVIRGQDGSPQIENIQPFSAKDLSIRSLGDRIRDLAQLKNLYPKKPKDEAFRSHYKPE
Description: HTRF binding assays were performed using 0.15 nM biotinylated truncated STAT6 (123-632)-avi purified from E. coli, 1× Streptavidin-terbium (CisBio) prepared by mixing SA-Tb in PPI detection buffer (CisBio), 20 nM proprietary fluorescein-labeled probe, and test compounds in assay buffer consisting of 50 mM HEPES-Na pH 7.5, 100 mM NaCl, 1 mM EDTA, 2 mM DTT, 0.1% Tween-20 with a final volume of 20 uL. Compound stocks were dissolved at 10 mM in 100% DMSO and 11 point titration with 3 fold serial dilution was performed in white, opaque 384 well microplates. Reaction plates were incubated at room temperature for 30 minutes. Plates were centrifuged at low rpm for 5 mins, and the ratio of fluorescence intensities were measured at emission wavelengths for fluorescein acceptor (520 nm) and terbium donor (495 nm) on Envision Plate reader. % Inhibition was calculated from the 520/495 ratio generated by using proprietary positive control compound for 100% inhibition and DMSO only reactions for 0% inhibition. Data was processed and dose response curves were generated using GraphPad Prism to determine the concentration required for inhibiting 50% of the HTRF signal (IC50).
The letter codes for IC50 (μM) include: A (<0.1 μM); B (0.1-1 μM); C (>1-10 μM); D (>10-100 μM); E (>100 μM); and F (not tested).

Structure (SMILES)	DC50 [1]	Dmax [1]	IC50 ([2]; 30 minutes at room temperature)	IC50 ([2]; HTRF binding)
CN(C)C(=O)c1cc2c(F)c(C3CCCN(C(=O)CCn4cccn4)C3)cc(-c3ccc(N4CCN(CCc5ccc(C6CCC(=O)NC6=O)c(Cl)c5)CC4)cc3)c2o1 (single isomer, unassigned) [Example I-281]	10 to 100 nM	70 to 90%	0.1 to 1 µM	–
CN(C)C(=O)c1cc2c(-c3ccc(C4CCN(c5ccc([C@@H]6CCC(=O)NC6=O)cc5F)CC4)cc3)cc(C3=CCCN(C(=O)CCn4cccn4)C3)c(F)c2[nH]1 (single isomer, unassigned) [Example I-742]	< 1 nM	> 90%	–	< 0.1 µM
CN(C)C(=O)c1cc2c(-c3ccc(C4CCN(c5ccc([C@H]6CCC(=O)NC6=O)cc5F)CC4)cc3)cc(C3=CCCN(C(=O)CCn4cccn4)C3)c(F)c2[nH]1 (single isomer, unassigned) [Example I-743]	< 1 nM	> 90%	–	< 0.1 µM
COc1cc(N2CCN(c3ccc(-c4cc(C5=CCCN(C(=O)CCn6cccn6)C5)c(F)c5[nH]c(C(=O)N(C)C)cc45)c(F)c3F)CC2)c(F)cc1N[C@@H]1CCC(=O)NC1=O (single isomer, unassigned) [Example I-744]	< 1 nM	> 90%	–	< 0.1 µM
COc1cc(N2CCN(c3ccc(-c4cc(C5=CCCN(C(=O)CCn6cccn6)C5)c(F)c5[nH]c(C(=O)N(C)C)cc45)c(F)c3F)CC2)c(F)cc1N[C@H]1CCC(=O)NC1=O (single isomer, unassigned) [Example I-745]	< 1 nM	> 90%	–	< 0.1 µM
Cc1cc(C2CCN(c3cccc4c3n(C)c(=O)n4[C@@H]3CCC(=O)NC3=O)CC2)ccc1-c1cc(C2=CCCN(C(=O)C(C)C)C2)c(F)c2[nH]c(C(=O)N(C)C)cc12 (single isomer, unassigned) [Example I-790]	1 to 10 nM	> 90%	–	1 to 10 µM
Cc1cc(C2CCN(c3cccc4c3n(C)c(=O)n4[C@H]3CCC(=O)NC3=O)CC2)ccc1-c1cc(C2=CCCN(C(=O)C(C)C)C2)c(F)c2[nH]c(C(=O)N(C)C)cc12 (single isomer, unassigned) [Example I-791]	< 1 nM	> 90%	–	1 to 10 µM
COc1cc(N2CCC(c3ccc(-c4cc(C5=CCCN(C(=O)CCn6cccn6)C5)c(F)c5[nH]c(C(=O)N(C)C)cc45)c(OC(F)(F)F)c3)CC2)c(F)cc1N[C@@H]1CCC(=O)NC1=O (single isomer, unassigned) [Example I-792]	1 to 10 nM	70 to 90%	–	< 0.1 µM
COc1cc(N2CCC(c3ccc(-c4cc(C5=CCCN(C(=O)CCn6cccn6)C5)c(F)c5[nH]c(C(=O)N(C)C)cc45)c(OC(F)(F)F)c3)CC2)c(F)cc1N[C@H]1CCC(=O)NC1=O (single isomer, unassigned) [Example I-793]	1 to 10 nM	70 to 90%	–	< 0.1 µM
COc1cc(N2CCN(c3ccc(-c4cc(C5=CCCN(C(=O)CCn6cccn6)C5)c(F)c5[nH]c(C(=O)N(C)C)cc45)cc3)CC2)c(F)cc1N[C@@H]1CCC(=O)NC1=O (single isomer, unassigned) [Example I-794]	< 1 nM	70 to 90%	–	–
COc1cc(N2CCN(c3ccc(-c4cc(C5=CCCN(C(=O)CCn6cccn6)C5)c(F)c5[nH]c(C(=O)N(C)C)cc45)cc3)CC2)c(F)cc1N[C@H]1CCC(=O)NC1=O (single isomer, unassigned) [Example I-795]	< 1 nM	> 90%	–	< 0.1 µM
CN(C)C(=O)c1cc2c(-c3ccc(C4CCN(c5ccc(N[C@H]6CCC(=O)NC6=O)cc5F)CC4)cc3)cc(C3=CCCN(C(=O)CCn4cccn4)C3)c(F)c2[nH]1 (single isomer, unassigned) [Example I-796]	< 1 nM	70 to 90%	–	< 0.1 µM
CN(C)C(=O)c1cc2c(-c3ccc(C4CCN(c5ccc(N[C@@H]6CCC(=O)NC6=O)cc5F)CC4)cc3)cc(C3=CCCN(C(=O)CCn4cccn4)C3)c(F)c2[nH]1 (single isomer, unassigned) [Example I-797]	1 to 10 nM	70 to 90%	–	< 0.1 µM
CC(=O)N1CCC=C(c2cc(-c3ccc(C4CCN(c5cccc6c5n(C)c(=O)n6C5CCC(=O)NC5=O)CC4)cc3C)c3cc(C(=O)N(C)C)[nH]c3c2F)C1 (stereo not drawn) [Example I-455, 6-(1-Acetyl-1,2,5,6-tetrahydropyridin-3-yl)-4-(4-(1-(1-(2,6-dioxopiperidin-3-yl)-3-methyl-2-oxo-2,3-dihydro-1H-benzo[d]1734midazole-4-yl)piperidin-4-yl)-2-methylphenyl)-7-fluoro-N,N-dim ethyl-1H-indole-2-carboxamide]	< 1 nM	> 90%	–	1 to 10 µM
COc1cc(N2CCN(CCOCC3CCN(c4ccnc(N5CC[C@@H]6[C@H]5CCCN6c5cccc(F)c5)c4)CC3)CC2)ccc1-c1cc(C2=CCCN(C(=O)CCn3ccnn3)C2)c(F)c2[nH]c(C(=O)N(C)C)cc12 [Example I-1049, 4-[4-(4-{2-[(1-{2-[(3aR,7aR)-4-(3-fluorophenyl)-hexahydro-2H-pyrrolo[3,2-b]pyridin-1-yl]pyridin-4-yl}piperidin-4-yl)methoxy]ethyl}piperazin-1-yl)-2-methoxyphenyl]-7-fluoro-N,N-dimethyl-6-{1-[3-(1,2,3-triazol-1-yl)propanoyl]-5,6-dihydro-2H-pyridin-3-yl}-1H-indole-2-carboxamide]	–	–	–	< 0.1 µM
